PubChem BioAssay AID330 (DTP/NCI, 2004)
Values joined by “and” are separate entries in the source; they are usually repeats but may differ in a detail not shown here. Identical values can stand only once. Inconclusive results and toxic doses are left out. The calls were made as follows: active = survival T/C of 150% or more; inactive = T/C below 125% in these data.

System: P388 leukemia ip, CD2F1 mice, survival T/C
Assay: NCI In Vivo Anticancer Drug Screen. Data for tumor model P388 Leukemia (intraperitoneal) in CD2F1 (CDF1) mice
Settings: endpoint: median survival time, higher = longer survival
How it was run: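 Mice carrying the transplanted tumor received test compound or vehicle. Survival was recorded in each group, and the value is the treated-group measurement divided by that of the vehicle-treated control group.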

[1] = dose: 25.0 mg/kg/injection, schedule: Q01DX009 (ip), vehicle: Klucel (hydroxypropylcellulose) (HPC)
[2] = dose: 50.0 mg/kg/injection, schedule: Q01DX009 (ip), vehicle: Klucel (hydroxypropylcellulose) (HPC)
[3] = dose: 100.0 mg/kg/injection, schedule: Q01DX009 (ip), vehicle: Klucel (hydroxypropylcellulose) (HPC)
[4] = dose: 200.0 mg/kg/injection, schedule: Q01DX009 (ip), vehicle: Klucel (hydroxypropylcellulose) (HPC)
[5] = dose: 50.0 mg/kg/injection, schedule: Q01DX005 (ip), vehicle: saline with Tween-80
[6] = dose: 100.0 mg/kg/injection, schedule: Q01DX005 (ip), vehicle: saline with Tween-80
[7] = dose: 200.0 mg/kg/injection, schedule: Q01DX005 (ip), vehicle: saline with Tween-80
[8] = dose: 100.0 mg/kg/injection, schedule: Q04DX003 (ip), vehicle: saline with Tween-80
[9] = dose: 200.0 mg/kg/injection, schedule: Q04DX003 (ip), vehicle: saline with Tween-80
[10] = dose: 400.0 mg/kg/injection, schedule: Q04DX003 (ip), vehicle: saline with Tween-80
[11] = dose: 25.0 mg/kg/injection, schedule: Q01DX009 (ip), vehicle: saline with Tween-80
[12] = dose: 60.0 mg/kg/injection, schedule: Q01DX005 (ip), vehicle: saline with Tween-80
[13] = dose: 120.0 mg/kg/injection, schedule: Q01DX005 (ip), vehicle: saline with Tween-80
[14] = dose: 50.0 mg/kg/injection, schedule: Q01DX009 (ip), vehicle: saline with Tween-80
[15] = dose: 100.0 mg/kg/injection, schedule: Q01DX009 (ip), vehicle: saline with Tween-80
[16] = dose: 200.0 mg/kg/injection, schedule: Q01DX009 (ip), vehicle: saline with Tween-80

Measured: T/C

COc1cc2c(cc1OC)C(NC=O)CCC2 (stereo not drawn)
inactive: dose: 25.0 mg/kg/injection, schedule: Q01DX009 (ip), vehicle: other 101 % of control | dose: 50.0 mg/kg/injection, schedule: Q01DX009 (ip), vehicle: other 104 % of control | dose: 100.0 mg/kg/injection, schedule: Q01DX009 (ip), vehicle: other 100 % of control | dose: 200.0 mg/kg/injection, schedule: Q01DX009 (ip), vehicle: other 101 % of control | dose: 400.0 mg/kg/injection, schedule: Q01DX009 (ip), vehicle: other 86 % of control

COC1/C=C\OC2(C)Oc3c(C)c(O)c4c(O)c(c(CN(C)CCO)c(O)c4c3C2=O)NC(=O)/C(C)=C\C=C/C(C)C(O)C(C)C(O)C(C)C(OC(C)=O)C1C (stereo not drawn)
inactive: dose: 12.5 mg/kg/injection, schedule: Q01DX009 (ip), vehicle: Klucel (hydroxypropylcellulose) (HPC) 86 % of control | [1] 117 % of control | [2] 118 % of control | [3] 111 % of control | [4] 104 % of control | dose: 400.0 mg/kg/injection, schedule: Q01DX009 (ip), vehicle: Klucel (hydroxypropylcellulose) (HPC) 96 % of control

NC1CCNC(O)[N-]1.NC1CCNC(O)[N-]1.[Cl][Pd][Cl] (stereo not drawn)
inactive: dose: 60.0 mg/kg/injection, schedule: Q01DX005 (ip), vehicle: Klucel (hydroxypropylcellulose) (HPC) 97 % of control | dose: 120.0 mg/kg/injection, schedule: Q01DX005 (ip), vehicle: Klucel (hydroxypropylcellulose) (HPC) 103 % of control | dose: 240.0 mg/kg/injection, schedule: Q01DX005 (ip), vehicle: Klucel (hydroxypropylcellulose) (HPC) 112 % of control

O=c1[nH]c(=O)n(C2OC(CO)C(O)C2O)c(NNc2ccccc2)c1NNc1ccccc1 (stereo not drawn)
inactive: [5] 97 % of control | [6] 111 % of control | [7] 117 % of control

CN/N=C/c1ccc(O)c(OC)c1
inactive: [8] 100 % of control | [9] 100 % of control | [10] 100 % of control

CCOC(=O)CC1(O)C=C(C)C(=O)C(C)=C1
inactive: dose: 3.13 mg/kg/injection, schedule: Q01DX009 (ip), vehicle: distilled water + Tween-80 100 % of control | dose: 6.25 mg/kg/injection, schedule: Q01DX009 (ip), vehicle: distilled water + Tween-80 109 % of control | dose: 12.5 mg/kg/injection, schedule: Q01DX009 (ip), vehicle: distilled water + Tween-80 103 % of control | dose: 25.0 mg/kg/injection, schedule: Q01DX009 (ip), vehicle: distilled water + Tween-80 98 % of control | dose: 50.0 mg/kg/injection, schedule: Q01DX009 (ip), vehicle: distilled water + Tween-80 107 % of control | dose: 100.0 mg/kg/injection, schedule: Q01DX009 (ip), vehicle: distilled water + Tween-80 99 % of control | dose: 200.0 mg/kg/injection, schedule: Q01DX009 (ip), vehicle: distilled water + Tween-80 112 % of control | dose: 400.0 mg/kg/injection, schedule: Q01DX009 (ip), vehicle: distilled water + Tween-80 108 % of control

CCCCCCCCCCCC1=C(O)C(=O)C=C(O)C1=O
inactive: dose: 6.25 mg/kg/injection, schedule: Q01DX009 (ip), vehicle: saline with Tween-80 101 % of control | dose: 12.5 mg/kg/injection, schedule: Q01DX009 (ip), vehicle: saline with Tween-80 106 % of control | [11] 102 % of control

COc1cc2c(c(OC)c1OC)-c1ccc(OC)c(=O)cc1C([N+](C)(C)C)CC2 (stereo not drawn)
inactive: dose: 2.5 mg/kg/injection, schedule: Q01DX009 (ip), vehicle: Klucel (hydroxypropylcellulose) (HPC) 94 % of control | dose: 5.0 mg/kg/injection, schedule: Q01DX009 (ip), vehicle: Klucel (hydroxypropylcellulose) (HPC) 100 % of control | dose: 10.0 mg/kg/injection, schedule: Q01DX009 (ip), vehicle: Klucel (hydroxypropylcellulose) (HPC) 103 % of control | dose: 20.0 mg/kg/injection, schedule: Q01DX009 (ip), vehicle: Klucel (hydroxypropylcellulose) (HPC) 100 % of control

Cc1ccccc1SSCCN
inactive: dose: 50.0 mg/kg/injection, schedule: Q01DX005 (ip), vehicle: Klucel (hydroxypropylcellulose) (HPC) 103 % of control | dose: 100.0 mg/kg/injection, schedule: Q01DX005 (ip), vehicle: Klucel (hydroxypropylcellulose) (HPC) 103 % of control

C[C@H]1[C@H](O)[C@H]2[C@@H](CCC3=CC(=O)CC[C@@]32C)[C@@H]2CC[C@H](O)[C@@]12C
inactive: [8] 104 % of control | [9] 100 % of control | [10] 100 % of control

C1CN2CN3CCN(CN1C3)C2
active: dose: 50.0 mg/kg/injection, schedule: Q01DX009 (ip), vehicle: saline 158 % of control | dose: 100.0 mg/kg/injection, schedule: Q01DX009 (ip), vehicle: saline 168 % of control
inactive: dose: 6.25 mg/kg/injection, schedule: Q01DX009 (ip), vehicle: saline 108 % of control

COc1cc(C2c3cc4c(cc3OC(=O)C2C(C)=O)OCO4)cc(OC)c1OC (stereo not drawn)
inactive: dose: 30.0 mg/kg/injection, schedule: Q01DX005 (ip), vehicle: saline with Tween-80 89 % of control and 90 % of control | [12] 89 % of control (2×) and 93 % of control | [13] 107 % of control and 110 % of control

O=Nc1cc(S(=O)(=O)O)c2cccnc2c1O
inactive: dose: 100.0 mg/kg/injection, schedule: Q04DX002 (ip), vehicle: saline 100 % of control | dose: 200.0 mg/kg/injection, schedule: Q04DX002 (ip), vehicle: saline 100 % of control | dose: 400.0 mg/kg/injection, schedule: Q04DX002 (ip), vehicle: saline 90 % of control

COC1=C(C)C(=O)C2=C(C1=O)[C@@H]1[C@@H]3Cc4c(OC(=O)CO)c(C)c(OC)c(O)c4[C@H](CNC(=O)C(C)=O)N3[C@@H](C#N)[C@H](C2)N1C
inactive: dose: 0.63 mg/kg/injection, schedule: Q01DX005 (ip), vehicle: Klucel (hydroxypropylcellulose) (HPC) 106 % of control | dose: 1.25 mg/kg/injection, schedule: Q01DX005 (ip), vehicle: Klucel (hydroxypropylcellulose) (HPC) 115 % of control | dose: 2.25 mg/kg/injection, schedule: Q01DX005 (ip), vehicle: Klucel (hydroxypropylcellulose) (HPC) 120 % of control | dose: 2.5 mg/kg/injection, schedule: Q01DX005 (ip), vehicle: Klucel (hydroxypropylcellulose) (HPC) 115 % of control | dose: 625.0 micrograms/kg/injection, schedule: Q01DX005 (ip), vehicle: Klucel (hydroxypropylcellulose) (HPC) 103 % of control | dose: 1250.0 micrograms/kg/injection, schedule: Q01DX005 (ip), vehicle: Klucel (hydroxypropylcellulose) (HPC) 110 % of control | dose: 2500.0 micrograms/kg/injection, schedule: Q01DX005 (ip), vehicle: Klucel (hydroxypropylcellulose) (HPC) 116 % of control | dose: 5000.0 micrograms/kg/injection, schedule: Q01DX005 (ip), vehicle: Klucel (hydroxypropylcellulose) (HPC) 118 % of control

CC(C)(O)C1CCCCC1Cl (stereo not drawn)
inactive: [5] 104 % of control | [6] 107 % of control | [7] 104 % of control

COCCCn1cnn2c(=O)c3ccccc3nc2c1=O
inactive: [12] 103 % of control | [13] 99 % of control | dose: 240.0 mg/kg/injection, schedule: Q01DX005 (ip), vehicle: saline with Tween-80 100 % of control

S=C1CC(c2ccc(Sc3ccccc3)cc2)=Nc2ccccc2N1
inactive: [1] 90 % of control | [2] 90 % of control | [3] 99 % of control and 87 % of control | [4] 100 % of control

CC(=O)n1cc(C2CC(=O)OC3=C2CC(=O)C(C)(C)C3)c2ccccc21 (stereo not drawn)
inactive: [11] 100 % of control | [14] 103 % of control | [15] 110 % of control | [16] 113 % of control | dose: 400.0 mg/kg/injection, schedule: Q01DX009 (ip), vehicle: saline with Tween-80 119 % of control

Cc1ccc(S(C)(=N)=O)c(N)c1 (stereo not drawn)
inactive: dose: 50.0 mg/kg/injection, schedule: Q01DX005 (ip), vehicle: acetone 99 % of control | dose: 100.0 mg/kg/injection, schedule: Q01DX005 (ip), vehicle: acetone 99 % of control | dose: 200.0 mg/kg/injection, schedule: Q01DX005 (ip), vehicle: acetone 100 % of control

CC(=O)N(O)c1ccccc1-c1ccccc1
inactive: [14] 103 % of control | [15] 99 % of control | [16] 97 % of control
